The test system of one series is A3 receptor. The note with it: cited from earlier work.
The target of a further series is T1, human hA2B receptors (Homo sapiens, UniProt P29275).
T1 construct: host or cells: HEK 293 cells
T1 sequence (P29275 1-332): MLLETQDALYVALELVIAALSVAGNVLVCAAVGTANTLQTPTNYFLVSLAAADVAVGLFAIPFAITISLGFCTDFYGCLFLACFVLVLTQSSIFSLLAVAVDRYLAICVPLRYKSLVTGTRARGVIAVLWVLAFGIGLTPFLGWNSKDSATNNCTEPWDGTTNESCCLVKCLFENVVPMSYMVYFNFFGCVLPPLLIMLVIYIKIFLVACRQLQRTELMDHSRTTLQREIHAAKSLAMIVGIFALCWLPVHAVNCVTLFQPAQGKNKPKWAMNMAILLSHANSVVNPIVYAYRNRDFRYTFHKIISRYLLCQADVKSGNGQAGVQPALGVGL
Description: [^3H] DPCPX binding to human hA2B receptors expressed in HEK293 cells (antagonist radioligand). The note with it: human A2B, HEK293 cells, antagonist radioligand; read-out: [^3H] DPCPX binding to human hA2B receptors expressed in HEK293 cells Ki. The procedure:
(§1) Binding assay methodology for the human data with antagonist radioligands. […] Arch. Pharmacol. 357: 1-9, (1998). The cells were grown adherently and maintained in Dulbecco's Modified Eagles Medium with nutrient mixture F12 (DMEM/F12) without nucleosides, containing 10% fetal calf serum, penicillin (100 U/ml), streptomycin (100 μg/ml), L-glutamine (2 mM) and Geneticin (G418, 0.2 mg/ml) at 37° C. in 5% CO2/95% air. Cells were split 2 or 3 times weekly at a ratio between 1:5 and 1:20. For membrane preparation the culture medium was removed and the cells were washed with PBS and scraped off T75 flasks in ice-cold hypotonic buffer (5 mM Tris HCl, 2 mM EDTA, pH 7.4). The cell suspension was homogenized with Polytron and the homogenate was spun for 10 min at 1,000×g. The supernatant was then centrifuged for 30 min at 100,000×g. The membrane pellet was resuspended in 50 mM Tris HCl buffer pH 7.4 (for A3 adenosine receptors: 50 mM Tris HCl, 10 mM MgCl2, 1 mM EDTA) and incubated with 3 UI/ml of Adenosine deaminase for 30 min at 37° C. Then the suspension was frozen at −80° C. HEK 293 cells transfected with the human recombinant A2B adenosine receptor were obtained from Receptor Biology, Inc. (Beltsville, Md., USA).
Competition experiments of [^3H]-DPCPX to HEK-293 cells transfected with the human recombinant A^2B adenosine receptor were performed for 60 min at 25° C. in 0.1 ml of 50 mM Tris HCl buffer, 10 mM MgCl2, 1 mM EDTA, 0.1 mM benzamidine pH 7.4, 2 IU/ml adenosine deaminase containing 34 nM [^3H]-DPCPX, diluted membranes (20 μg of protein/assay) and at least 6-8 different concentrations of selected compounds.

In series [1] the target is T2, human A3 adenosine receptors (Homo sapiens, UniProt P0DMS8).
T2 sequence (P0DMS8 1-318): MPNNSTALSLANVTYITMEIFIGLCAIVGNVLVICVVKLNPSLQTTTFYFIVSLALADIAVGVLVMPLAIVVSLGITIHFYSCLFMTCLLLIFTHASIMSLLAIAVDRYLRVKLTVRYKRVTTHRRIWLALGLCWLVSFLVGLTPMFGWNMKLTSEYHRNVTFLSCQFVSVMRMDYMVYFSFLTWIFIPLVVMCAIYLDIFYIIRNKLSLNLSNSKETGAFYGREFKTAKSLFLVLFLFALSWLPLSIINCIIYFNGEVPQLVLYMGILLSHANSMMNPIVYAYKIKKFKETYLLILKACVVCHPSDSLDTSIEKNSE

For a further series, the target named is T3, human A1 receptors (Homo sapiens, UniProt P30542).
T3 construct: expressed in transfected cells; host or cells: CHO cells
T3 sequence (P30542 1-326): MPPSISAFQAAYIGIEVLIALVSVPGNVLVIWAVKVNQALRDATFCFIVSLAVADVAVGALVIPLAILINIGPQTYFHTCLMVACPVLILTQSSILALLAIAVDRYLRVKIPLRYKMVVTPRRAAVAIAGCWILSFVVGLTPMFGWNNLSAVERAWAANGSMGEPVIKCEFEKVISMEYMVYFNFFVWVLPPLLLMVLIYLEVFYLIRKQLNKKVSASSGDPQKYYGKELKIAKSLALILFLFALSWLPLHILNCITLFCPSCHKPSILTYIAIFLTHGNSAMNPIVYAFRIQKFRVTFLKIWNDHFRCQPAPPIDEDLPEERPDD
Description: [^3H] DPCPX binding to human A1 receptors expressed in CHO cells (antagonist radioligand). To be noted: human A1, CHO cells, antagonist radioligand; read-out: [^3H] DPCPX binding to human A1 receptors expressed in CHO cells Ki. Here is the method:
as §1, with “Pharmacol. 357: 1-9, (1998).” left out
Displacement experiments were performed for 120 min at 25° C. in 0.2 ml of 50 mM Tris HCl buffer pH 7.4 containing 1 nM [3H]-DPCPX, diluted membranes (50 μg of protein/assay) and at least 6-8 different concentrations of antagonists studied. Non-specific binding was determined in the presence of 10 μM of CHA and this was always ≦10% of the total binding.

A further series has as its target T4, human A2A receptors (Homo sapiens, UniProt P29274).
T4 construct: expressed in transfected cells; host or cells: CHO cells
The experiment in a line: [^3H] SCH58261 binding to human A2A receptors expressed in CHO cells (antagonist radioligand). The note with it: human A2A, CHO cells, antagonist radioligand; read-out: [^3H] SCH58261 binding to human A2A receptors expressed in CHO cells Ki. Here is the method: as §1
Binding of [^3H]-SCH 58261 to CHO cells transfected with the human recombinant A2A adenosine receptors (50 μg of protein/assay) was performed using 0.2 ml 50 mM Tris HCl buffer, 10 mM MgCl2 pH 7.4 and at least 6-8 different concentrations of antagonists studied for an incubation time of 30 min at 25° C.

For another series, the target named is T5, human A3 receptors (Homo sapiens, UniProt P0DMS8).
T5 construct: expressed in transfected cells; host or cells: CHO cells
T5 sequence (P0DMS8 1-318): T2 sequence (P0DMS8 1-318)
Description: [^3H] MRE3008F20 binding to human A3 receptors expressed in CHO cells (antagonist radioligand). The note with it: human A3, CHO cells, antagonist radioligand; read-out: [^3H] MRE3008F20 binding to human A3 receptors expressed in CHO cells Ki. The procedure:
as §1
Binding of [^3H]-MRE 3008F20 to CHO cells transfected with the human recombinant A3 adenosine receptors was performed according to Varani et al., 2000. Competition experiments were carried out in duplicate in a final volume of […] in test tubes containing 1 nM [^3H]-MRE 3008F20, 50 mM Tris HCl buffer, 10 mM MgCl2, 1 mM EDTA pH 7.4 and 100 μl of diluted membranes (50 μg of protein/assay) and at least 8-10 different concentrations of examined antagonists. Incubation time was 120 min at 4° C., according to the results of previous time-course experiments.

In series [2] the target is T6, human A1 adenosine receptors (Homo sapiens, UniProt P30542).
T6 sequence (P30542 1-326): T3 sequence (P30542 1-326)
The experiment in a line: Displacement of [^3H]CHA binding, human A1 adenosine receptors in CHO cells (agonist radioligand).

For series [3], the target named is T7, human A2A adenosine receptors (Homo sapiens, UniProt P29274).
T7 construct: expressed in transfected cells; host or cells: CHO cells
T7 sequence (P29274 whole entry): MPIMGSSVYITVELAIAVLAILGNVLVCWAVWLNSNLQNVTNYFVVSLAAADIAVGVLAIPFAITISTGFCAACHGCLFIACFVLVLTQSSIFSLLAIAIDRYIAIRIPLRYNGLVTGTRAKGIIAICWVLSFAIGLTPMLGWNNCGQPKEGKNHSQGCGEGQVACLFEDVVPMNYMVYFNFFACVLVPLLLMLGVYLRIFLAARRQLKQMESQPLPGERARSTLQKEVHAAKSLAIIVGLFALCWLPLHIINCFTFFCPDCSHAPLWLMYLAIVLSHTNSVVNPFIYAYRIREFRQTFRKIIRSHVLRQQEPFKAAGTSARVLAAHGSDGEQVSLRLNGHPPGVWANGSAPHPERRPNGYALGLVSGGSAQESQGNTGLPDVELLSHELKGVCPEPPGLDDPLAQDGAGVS
The experiment in a line: Displacement of [^3H]CGS21680 binding, human A2A adenosine receptors in CHO cells (agonist radioligand). To be noted: human A2A, CHO cells, [^3H]CGS21680; read-out: Ki(A2A). Displacement of [^3H]CGS21680 binding to human A2A adenosine receptors exp. in CHO cells.

pKi: −log10 of the molar value.

T4 sequence (P29274 whole entry): as above

With `CNC(=O)[C@H]1O[C@@H](n2cnc3c(NCc4cccc(I)c4)ncnc32)[C@H](O)[C@@H]1O` [IB-MECA, N^6-(3-iodo-benzyl)-adenosine-5′-N-methyl-uronamide], the “selective for the A3 receptor versus either the A1 or A2A receptors” value with A3 receptor is on record as 50 fold.
Regarding `CCNC(=O)[C@H]1O[C@@H](n2cnc3c(NC(=O)Nc4ccc(S(=O)(=O)NC5CC5)cc4)ncnc32)[C@H](O)[C@@H]1O` [Compound 89, 1-Deoxy-1-[6-[[[[4-[N-(cyclopropyl)aminosulfonyl]phenyl]amino]-carbonyl]-amino]-9H-purin-9-yl]-N-ethyl-β-D-ribofuranuronamide], the melting point was 180 °C (dec.). Also, on human hA2B receptors, the pKi is less than 6.00. In [1], the pKi was 7.60. The A1/A3 in [1] (ratio Ki(A1)/Ki(A3), agonist radioligands) was 11.6. Further, the negative-log Ki (pKi) at human A1 receptors is less than 6.00. In addition, the pKi at human A2A receptors is less than 6.00. Moreover, at human A3 receptors, the negative-log Ki (pKi) is 6.47. In series [2], this compound showed a pKi of 6.54. The pKi in series [3] was less than 6.00.

The values above are taken from patent US7511133B2, “Adenosine A3 receptor agonists” (King Pharmaceuticals Research and Development, Inc., priority 2003, dated 2009).
